Literature values, collected in patent publication US20020103221A1, “Use of growth hormone secretagogues for improvement of functional health status” (priority 2000, published 2002).
Non-standard residues stand in square brackets, D forms with d. Residues, ends and D or L forms follow the SMILES beside them. d2Nal = N[C@H](Cc1ccc2ccccc2c1)C(=O)O; Aib = CC(C)(N)C(=O)O

Assays:
[1] = adult female rats
[2] = system: serum insulin-like growth factor-I; quadriceps muscle; conditions: canines, during remobilization
[3] = system: markers of bone formation and bone resorption; conditions: obese young males
[4] = GH-deficient adults

**Q.** With GHRP-6 as the molecule, how does the bone mass [1] read?
**A.** capacity to increase bone mass

**Q.** With `CC(C)(N)C(=O)N[C@@H](Cc1c[nH]cn1)C(=O)N[C@H](Cc1ccc2ccccc2c1)C(=O)N[C@H](Cc1ccccc1)C(=O)N[C@@H](CCCCN)C(N)=O` [ipamorelin] (H-[Aib]H[d2Nal][dF]K-NH2) as the molecule, how does the bone mass [1] read?
**A.** capacity to increase bone mass

**Q.** For `CC(C)(N)C(=O)N[C@H](COCc1ccccc1)C(=O)N1CCC2(CC1)CN(S(C)(=O)=O)c1ccccc12` [MK-0677], which “levels of serum insulin-like growth factor-I” value [2] is on record?
**A.** elevated

**Q.** And the “size and strength of the quadriceps muscle” value [2]?
**A.** increased

**Q.** What about the “markers of bone formation and bone resorption” value [3] of the same molecule?
**A.** increases

**Q.** With “growth hormone: growth hormone replacement given to GH-deficient adults” as the molecule, how does the self-perceived well-being [4] read?
**A.** significant improvements
